In ChEMBL document CHEMBL5113400, “Design, synthesis, and biological evaluation of trizole-based heteroaromatic derivatives as Bcr-Abl kinase inhibitors” (Eur J Med Chem, 2022):

Columns and labels:
K562 = test: Antiproliferative activity against human K562 cells assessed as inhibition of cell growth incubated for 48 hrs by MTT assay; assay type: functional, cell-based; conditions: K562, 48 h
Bcr/Abl fusion protein [1] = target: Bcr/Abl fusion protein (Homo sapiens, UniProt P00519, T315I); test: Inhibition of Bcr-Abl T315I mutant (unknown origin) incubated for 1 hr in presence of ATP by ADP-Glo kinase assay; assay type: protein assay
K562/Adr [2] = test: Antiproliferative activity against human Adriamycin-resistant K562/Adr cells assessed as inhibition of cell growth at 30 uM incubated for 48 hrs by MTT assay; assay type: functional
Bcr/Abl fusion protein [3] = target: Bcr/Abl fusion protein (Homo sapiens, UniProt P00519); test: Inhibition of wild type Bcr-Abl (unknown origin) incubated for 1 hr in presence of ATP by ADP-Glo kinase assay; assay type: protein assay
BaF3 = test: Antiproliferative activity against mouse BaF3 cells expressing Bcr-Abl T315I mutant assessed as inhibition of cell growth at 30 uM incubated for 72 hrs by CellTiter-Glo luminescent assay; assay type: functional
K562/Adr [4] = test: Antiproliferative activity against human Adriamycin-resistant K562/Adr cells assessed as inhibition of cell growth incubated for 48 hrs by MTT assay; assay type: functional, cell-based

SMILES | IC50 (K562) [nM] | IC50 (Bcr/Abl fusion protein [1]) [nM] | inhibition at 30 µM (K562/Adr [2]) [%] | IC50 (Bcr/Abl fusion protein [3]) [nM] | inhibition at 30 µM (BaF3) [%] | IC50 (K562/Adr [4]) [nM]
O=C(Nc1nc2ccc(-c3cn([C@@H]4CN[C@H](C(=O)Nc5ccc(Cl)c(C(F)(F)F)c5)C4)nn3)nc2s1)C1CC1 | 16200 | 110 | 10.4 | 24.6 | 78.8 | –
CC(=O)Nc1n[nH]c2cc(-c3cn([C@@H]4CN[C@H](C(=O)Nc5ccc(Cl)cc5Cl)C4)nn3)ccc12 | 2090 | 135 | – | 3.15 | 25.5 | 1230
Nc1n[nH]c2cc(-c3cn([C@@H]4CN[C@H](C(=O)Nc5ccc(Cl)c(C(F)(F)F)c5)C4)nn3)ccc12 | 8320 | 137 | 48.2 | 15 | 31.2 | –
CCN1CCN(c2cc(NC(=O)[C@@H]3C[C@H](n4cc(-c5ccc6c(N)n[nH]c6c5)nn4)CN3)ccc2Cl)CC1 | 180 | 84.8 | – | 8.71 | 20 | 12600
CC(C)(C)OC(=O)N1C[C@@H](n2cc(-c3ccc4nc(N)sc4n3)nn2)C[C@H]1C(=O)Nc1ccc(Cl)c(C(F)(F)F)c1 | 10800 | 667 | 27.4 | 10.6 | 52.3 | –
CC(C)(C)OC(=O)N1C[C@@H](n2cc(-c3ccc4c(N)n[nH]c4c3)nn2)C[C@H]1C(=O)Nc1ccc(Cl)c(C(F)(F)F)c1 | 10500 | 150 | 37.1 | 21.9 | 53.8 | –
CC(=O)Nc1nc2ccc(-c3cn([C@@H]4CN[C@H](C(=O)Nc5ccc(Br)cc5)C4)nn3)nc2s1 | 5020 | 169 | 32 | 6.99 | 40 | –
O=C(NC1CC1)c1cncc(-c2cn([C@@H]3CN[C@H](C(=O)Nc4ccc(Cl)c(C(F)(F)F)c4)C3)nn2)c1 | 820 | 31.5 | – | 1.94 | 24.6 | 175000
O=C(Nc1n[nH]c2cc(-c3cn([C@@H]4CN[C@H](C(=O)Nc5ccc(Br)cc5)C4)nn3)ccc12)C1CC1 | 8080 | 144 | 39.6 | 5.53 | 20 | –
O=C(Nc1ccc(Cl)c(C(F)(F)F)c1)[C@@H]1C[C@H](n2cc(-c3cncc(C(=O)N4CCOCC4)c3)nn2)CN1 | 28800 | 801 | 25.6 | 60.1 | – | –
O=C(Nc1nc2ccc(-c3cn([C@@H]4CN[C@H](C(=O)Nc5ccc(F)c(F)c5)C4)nn3)nc2s1)C1CC1 | 40700 | 1340 | 29.5 | 30.1 | – | –
CC(=O)Nc1nc2ccc(-c3cn([C@@H]4CN[C@H](C(=O)Nc5ccc(F)c(F)c5)C4)nn3)nc2s1 | 63000 | 1890 | 38.4 | 202 | – | –
CCN(CC)C(=O)c1cncc(-c2cn([C@@H]3CN[C@H](C(=O)Nc4ccc(Cl)c(C(F)(F)F)c4)C3)nn2)c1 | 27600 | 261 | 32.4 | 14.5 | – | –
Nc1nc2ccc(-c3cn([C@@H]4CN[C@H](C(=O)Nc5ccc(Br)cc5)C4)nn3)nc2s1 | 24400 | 178 | 35.9 | 27.1 | 27.5 | –
Nc1nc2ccc(-c3cn([C@@H]4CN[C@H](C(=O)Nc5ccc(F)c(F)c5)C4)nn3)nc2s1 | 33200 | 1590 | 27.4 | 128 | – | –
CC(=O)Nc1n[nH]c2cc(-c3cn([C@@H]4CN[C@H](C(=O)Nc5ccc(Cl)c(C(F)(F)F)c5)C4)nn3)ccc12 | 15500 | 121 | 23.4 | 28.2 | 21.8 | –

SMILES | IC50 (K562) [nM] | IC50 (Bcr/Abl fusion protein [1]) [nM] | inhibition at 30 µM (K562/Adr [2]) [%] | IC50 (Bcr/Abl fusion protein [3]) [nM] | inhibition at 30 µM (BaF3) [%] | IC50 (K562/Adr [4]) [nM]
CC(C)(C)OC(=O)N1C[C@@H](n2cc(-c3ccc4c(N)n[nH]c4c3)nn2)C[C@H]1C(=O)Nc1ccc(Cl)cc1Cl | 12200 | 1880 | 25.6 | 60.6 | 28.7 | –
CC(C)(C)OC(=O)N1C[C@@H](n2cc(-c3ccc4c(N)n[nH]c4c3)nn2)C[C@H]1C(=O)Nc1ccc(Br)cc1 | 3710 | 237 | 23 | 50 | 20.1 | –
Nc1nc2ccc(-c3cn([C@@H]4CN[C@H](C(=O)Nc5ccc(Cl)c(C(F)(F)F)c5)C4)nn3)nc2s1 | 26200 | 24.7 | – | 15.6 | – | 187000
Nc1n[nH]c2cc(-c3cn([C@@H]4CN[C@H](C(=O)Nc5ccc(Cl)cc5Cl)C4)nn3)ccc12 | 28400 | 3670 | 29.4 | 8.6 | 19.3 | –
O=C(Nc1ccc(-c2cn([C@@H]3CN[C@H](C(=O)Nc4ccc(Cl)c(C(F)(F)F)c4)C3)nn2)cn1)C1CC1 | 8770 | 338 | 44.3 | 0.65 | 36.4 | –
CN(C)CCNC(=O)c1cncc(-c2cn([C@@H]3CN[C@H](C(=O)Nc4ccc(Cl)c(C(F)(F)F)c4)C3)nn2)c1 | 21000 | 349 | 14.5 | 29.2 | 21.8 | –
O=C(Nc1n[nH]c2cc(-c3cn([C@@H]4CN[C@H](C(=O)Nc5ccc(Cl)cc5Cl)C4)nn3)ccc12)C1CC1 | 5340 | 200 | 43.3 | 0.83 | 27.6 | –
CC(=O)Nc1nc2ccc(-c3cn([C@@H]4CN[C@H](C(=O)Nc5ccc(Cl)c(C(F)(F)F)c5)C4)nn3)nc2s1 | 10000 | 59.6 | – | 23.5 | 44.8 | –
CC(=O)Nc1nc2ccc(-c3cn([C@@H]4CN[C@H](C(=O)Nc5ccc(Cl)cc5Cl)C4)nn3)nc2s1 | 9670 | 388 | 36.1 | 4.8 | 39.5 | –
CC(C)(C)OC(=O)N1C[C@@H](n2cc(-c3ccc4nc(N)sc4n3)nn2)C[C@H]1C(=O)Nc1ccc(Cl)cc1Cl | 8940 | 410 | 28.3 | 14.7 | 86.7 | –
CC(C)(C)OC(=O)N1C[C@@H](n2cc(-c3ccc4nc(N)sc4n3)nn2)C[C@H]1C(=O)Nc1ccc(Br)cc1 | 29200 | 25.2 | 31.7 | 6.88 | – | –
CC(C)(C)C(=O)Nc1ccc(-c2cn([C@@H]3CN[C@H](C(=O)Nc4ccc(Cl)c(C(F)(F)F)c4)C3)nn2)cn1 | 43800 | 3440 | 19.1 | 41.5 | – | –
Nc1nc2ccc(-c3cn([C@@H]4CN[C@H](C(=O)Nc5ccc(Cl)cc5Cl)C4)nn3)nc2s1 | 24500 | 118 | 42.2 | 9.45 | 19.5 | –
CC(C)(C)OC(=O)N1C[C@@H](n2cc(-c3ccc(N)nc3)nn2)C[C@H]1C(=O)Nc1ccc(Cl)c(C(F)(F)F)c1 | 4710 | 125 | 48.6 | 0.94 | 66.7 | –
CC(=O)Nc1ccc(-c2cn([C@@H]3CN[C@H](C(=O)Nc4ccc(Cl)c(C(F)(F)F)c4)C3)nn2)cn1 | 8980 | 127 | 33.6 | 3.45 | 26.5 | –
Nc1n[nH]c2cc(-c3cn([C@@H]4CN[C@H](C(=O)Nc5ccc(Br)cc5)C4)nn3)ccc12 | 10300 | 310 | 26.8 | 43.6 | – | –
